Experimental data from patent publication US20260199309A1, “COMPOUNDS FOR THE TREATMENT OF CENTRA NERVOUS SYSTEM DISORDERS” (Autifony Therapeutics Limited, priority 2022, published 2026).
pIC50: −log10 of the molar value.

Tests used:
[1] = biological target: T1, CYP3A4 (Homo sapiens, UniProt P08684); assay: CYP450 inhibition, Vivid Baculosomes (3A4/DBOMF); assay type: in vitro ADME; details: substrate DBOMF, top concentration 5.00E-05, read-out: CYP3A4DBOMF
T1 construct: purchased
Excerpt: (§1) The method uses recombinant human CYP450 to metabolize pro-fluorescent probe substrates to fluorescent products. IC50 values for the effect of test compounds on the metabolism of these probe substrates provides a measure of the potency of inhibition of individual CYP450 isoforms.
(§2) The described assays measure in vitro inhibitory effects (pIC50) of compounds at the human P450 isoforms (1A2, 2C8, 2C9, 2C19, 2D6, 3A4) expressed in recombinant microsomes. Pro-fluorescent probe substrates are metabolized to fluorescent products by the enzymes.
(§3) Fluorescence is measured in kinetic mode (1 read/min for 10 min) and the fluorescence rate is calculated. Data are normalized to controls: DMSO represents 0% effect (i.e. no inhibition), while 10 μM Miconazole is set to 100% effect (i.e. complete inhibition).
(§4) Inhibition of the fluorescent signal determined by P450 […] indicates antagonist activity of the compound and allows for the calculation of the compound plC50.
(§5) CRCs of compounds are run on two different test occasions (n=2) by preparing serial dilutions from the same compound stock solution. Details of the solutions are outlined in Table 6:
(§6) Test compound serial dilutions 1 to 3 were performed from a 10 mM stock solution in DMSO by Biomek FX to generate 10 point CRC. 100% DMSO was used for assay low controls. 10 mM (2 mM for 3A4/DBOMF, 2C8/DBOMF assay only) miconazole solution in DMSO was used as assay high controls. The final concentrations of the 10 point CRCs of test compounds in the assay plate were 5.00E-05; 1.67E-05; 5.56E-06; 1.85E-06; 6.17E-07; 2.06E-07; 6.86E-08; 2.29E-08; 7.62E-09 and 2.54E-09, respectively.
(§7) The CYP3A4 and CYP2C8 were assayed using the Vivid CYP3A4 Baculosomes, CYP2C8 Baculosomes and Vivid DBOMF Substrate. […]
(§8) 10 μl/well from compound plate was added and incubated for 10 min at 37° C. on a plate shaker. […] The plate was transferred into the fluorescent plate reader (EnVision, Wallac) immediately within 2 min and monitor fluorescence every minute for 10 (Excitation 485, Emission 535 and Mirror 505 FITC). […]
(§9) The inhibition effect was expressed as percentage. […]

[2] = biological target: CYP1A2 (Homo sapiens, UniProt P05177); assay: CYP450 inhibition, pro-fluorescent probe substrate (1A2/ER)
Chain of CYP1A2 (P05177 whole entry): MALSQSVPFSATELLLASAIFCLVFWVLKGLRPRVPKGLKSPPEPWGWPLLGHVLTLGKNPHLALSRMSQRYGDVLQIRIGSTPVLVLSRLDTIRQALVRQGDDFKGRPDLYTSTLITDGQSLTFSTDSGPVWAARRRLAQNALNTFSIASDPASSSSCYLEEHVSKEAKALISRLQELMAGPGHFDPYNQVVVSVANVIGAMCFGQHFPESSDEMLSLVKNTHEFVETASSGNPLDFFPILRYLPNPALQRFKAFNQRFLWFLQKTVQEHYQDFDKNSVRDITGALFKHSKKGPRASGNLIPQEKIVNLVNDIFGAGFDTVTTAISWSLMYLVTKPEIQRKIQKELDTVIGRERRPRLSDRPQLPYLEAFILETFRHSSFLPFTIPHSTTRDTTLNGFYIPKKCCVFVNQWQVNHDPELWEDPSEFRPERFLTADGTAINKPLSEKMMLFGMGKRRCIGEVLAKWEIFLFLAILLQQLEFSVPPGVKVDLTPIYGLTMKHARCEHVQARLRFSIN

[3] = biological target: T2, CYP2C8 (Homo sapiens, UniProt P10632); assay: CYP450 inhibition, Vivid Baculosomes (2C8/DBOMF); assay type: in vitro ADME; details: recombinant human CYP450 Baculosomes, substrate DBOMF; top concentration 5.00E-05
T2 construct: purchased
T2 sequence (P10632 1-490): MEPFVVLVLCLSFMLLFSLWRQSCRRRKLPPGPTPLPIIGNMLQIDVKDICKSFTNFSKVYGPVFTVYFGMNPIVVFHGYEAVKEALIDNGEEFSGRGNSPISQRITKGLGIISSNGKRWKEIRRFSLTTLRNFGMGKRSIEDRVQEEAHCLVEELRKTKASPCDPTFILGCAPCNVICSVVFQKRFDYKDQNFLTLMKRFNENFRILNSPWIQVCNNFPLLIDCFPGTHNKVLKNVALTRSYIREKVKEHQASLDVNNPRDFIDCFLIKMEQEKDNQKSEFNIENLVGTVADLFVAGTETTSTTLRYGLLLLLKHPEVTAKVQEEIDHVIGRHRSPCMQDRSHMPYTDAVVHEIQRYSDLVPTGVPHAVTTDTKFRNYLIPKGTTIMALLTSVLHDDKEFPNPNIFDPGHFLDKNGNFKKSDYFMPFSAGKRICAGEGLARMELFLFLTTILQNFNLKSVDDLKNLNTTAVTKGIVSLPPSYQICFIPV
Excerpt: as §1, §2, §3, §4, §5, §6, §7, §8, §9

T1 sequence (P08684 whole entry): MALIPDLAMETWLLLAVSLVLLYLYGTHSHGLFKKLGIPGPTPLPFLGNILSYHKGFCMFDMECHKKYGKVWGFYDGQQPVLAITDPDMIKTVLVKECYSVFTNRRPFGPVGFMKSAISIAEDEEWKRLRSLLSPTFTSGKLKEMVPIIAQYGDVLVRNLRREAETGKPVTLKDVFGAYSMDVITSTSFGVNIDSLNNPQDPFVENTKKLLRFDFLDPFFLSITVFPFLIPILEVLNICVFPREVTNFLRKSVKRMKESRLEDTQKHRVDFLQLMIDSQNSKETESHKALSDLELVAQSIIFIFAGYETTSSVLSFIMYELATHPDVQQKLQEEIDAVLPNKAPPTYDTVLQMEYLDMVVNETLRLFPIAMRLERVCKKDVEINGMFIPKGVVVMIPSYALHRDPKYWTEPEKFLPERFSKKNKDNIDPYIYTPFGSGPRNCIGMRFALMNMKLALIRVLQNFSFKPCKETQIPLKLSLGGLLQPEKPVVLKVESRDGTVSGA

Row | SMILES | pIC50 [1] | pIC50 [2] | pIC50 [3]
1 | CC1(C)NC(=O)N(c2ccc(Oc3cccc(OC(F)(F)F)c3)nc2N)C1=O [Example 9, 3-[2-amino-6-[3-(trifluoromethoxy)phenoxy]-3-pyridyl]-5,5-dimethyl-imidazolidine-2,4-dione] | < 4.30 | < 4.30 | < 4.30
2 | Cc1ccc(Oc2ccc(N3C(=O)NC(C)(C)C3=O)c(N)n2)c2c1OCC21CC1 [Example 1, 3-[2-amino-6-(7-methylspiro[2H-benzofuran-3,1′-cyclopropane]-4-yl)oxy-3-pyridyl]-5,5-dimethyl-imidazolidine-2,4-dione] | < 4.30 | < 4.30 | 5.05
3 | COc1nc(Oc2ccc(C)c3c2C2(CC2)CO3)ccc1N1C(=O)NC(C)(C)C1=O [Reference Example 2, reference compound] | 4.99 | < 4.30 | 5.64
